Strand notation (5' to 3'): a small letter for the sugar, then the base; units joined by * are phosphorothioate-linked, units joined directly phosphodiester-linked; [ ] holds rarer units or linkages, { } end groups; capitals alone tell only the bases. e = 2'-O-(2-methoxyethyl) (MOE); [5mC] = 5-methylcytosine; d = 2'-deoxy (DNA)

The subject of series [1] is human Factor 11 mRNA. Kind of series: Antisense inhibition of human Factor 11 in HepG2 cells, lipofectin, 75 nM (Example 1). The class given is cell-based. To be noted: 75 nM antisense oligonucleotide, ~24 h, relative to untreated control cells, gapmers targeted to SEQ ID NO: 1. In short, it runs like this: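 HepG2 cells transfected via lipofectin with 75 nM antisense oligonucleotide (5-10-5 MOE gapmers, 20-mers, phosphorothioate, 5-methylcytidines), treated ~24 h. Factor 11 mRNA quantified by real-time PCR, normalised to RIBOGREEN total RNA; percent inhibition versus untreated cells.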

The test system of series [2] is fibrinogen. The series is described as follows: Fibrinogen assay (Example 45). The class given is in vivo, cynomolgus monkeys. The following applies: plasma, escalating dose regimen. As for the experimental part: (§1) Groups, each consisting of two male and three female monkeys, were injected subcutaneously with ISIS 416838, ISIS 416850, ISIS 416858, ISIS 416864, or ISIS 417002 in escalating doses. Antisense oligonucleotide was administered to the monkeys at 5 mg/kg three times per a week for week 1; 5 mg/kg twice per week for weeks 2 and 3; 10 mg/kg three times per week for week 4; 10 mg/kg twice per week for weeks 5 and 6; 25 mg/kg three times per week for week 7; and 25 mg/kg twice per week for weeks 8, 9, 10, 11, and 12. One control group, consisting of two male and three female monkeys, was injected subcutaneously with PBS according to the same dosing regimen. An additional experimental group, consisting of two male and three female monkeys, was injected subcutaneously with ISIS 416850 in a chronic, lower dose regimen. Antisense oligonucleotide was administered to the monkeys at 5 mg/kg three times per week for week 1; 5 mg/kg twice per week for week 2 and 3; 10 mg/kg three times per week for week 4; and 10 mg/kg twice per week for weeks 5 to 12. Body weights were measured weekly. Blood samples were collected 14 days and 5 days before the start of treatment and subsequently once per week for Factor 11 protein activity analysis in plasma, fibrinogen measurement, PT and aPTT measurements, bleeding times, and measurement of various hematologic factors. On day 85, the monkeys were euthanized by exsanguination while under deep anesthesia, and organs harvested for further analysis.
Nine parts of fresh monkey plasma was collected into one part of trisodium citrate. The samples were evaluated of fibrinogen content using an ACL 9000 coagulation instrument (Instrumentation Laboratory, Italy). The ISIS oligonucleotide, ISIS 416850, given with the chronic dose regimen is distinguished from the other oligonucleotides with an asterisk (*).

Series [3] can be described thus: Body and organ weights of cynomolgus monkeys (Example 45).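 As to Organ weights, Kidney: absolute organ weight in grams.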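 As to Organ weights, Liver: absolute organ weight in grams.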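 As to Organ weights, Spleen: absolute organ weight in grams.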 The class given is in vivo. To be noted: for Organ weights, Kidney / Organ weights, Liver / Organ weights, Spleen: after the animals were euthanized; for body weights: escalating dose regimen. As for the experimental part:
as §1
Body weights were taken once weekly throughout the dosing regimen. […] Organ weights were taken after the animals were euthanized and livers, kidneys and spleens were harvested and weighed. […] The ISIS oligonucleotide, ISIS 416850, given with the chronic dose regimen is distinguished from the other oligonucleotides with an asterisk (*).

Series [4] in a line: Tolerability in CD1 mice: kidney function, BUN, creatinine (Example 33). To be noted: plasma, 50 mg/kg s.c. twice a week.

Usually % inhibition stands for how much of the control response was suppressed. As to “412206 (antisense e[5mC]*e[5mC]*eG*eT*eG*d[5mC]*dA*dT*d[5mC]*dT*dT*dT*d[5mC]*dT*dT*eG*eG*e[5mC]*eA*eT) [compound 412206]”, the “% inhibition” value in series [1] is on record as 87%.
Turning to “ISIS 416838: MOE gapmer, nucleobases 1018 to 1042 of SEQ ID NO: 1 (Table 6) (antisense GCAACCGGGATGATGAGTGC; MOE gapmer, wing and gap sizes not given here)”, the fibrinogen levels in series [2] (day 8) is listed as 209 mg/dL; in series [2] (day 15) it was 198 mg/dL; in series [2] (day 22) it was 183 mg/dL; in series [2] (day 29), 184 mg/dL; in series [2] (day 36) it was 182 mg/dL; in series [2] (day 43) it was 186 mg/dL. For the same substance, the fibrinogen levels in series [2] (day 50) is recorded as 216 mg/dL; in series [2] (day 57) it was 190 mg/dL; in series [2] (day 64), 190 mg/dL; in series [2] (day 71), 199 mg/dL; in series [2] (day 78), 189 mg/dL; in series [2] (day 85), 196 mg/dL. Further, the fibrinogen levels turned out to be 205 mg/dL in series [2] (day −5) and 251 mg/dL in series [2] (day −14). The “Organ weights, Kidney” value in series [3] was 12 g. Also, the “Organ weights, Liver” value in series [3] is on record as 63 g. The “Organ weights, Spleen” value in series [3] came out at 5 g. For the same substance, the body weights in series [3] (day 1) amounted to 2720 g; in series [3] (day 8) it was 2592 g; in series [3] (day 15), 2642 g; in series [3] (day 22), 2702 g; in series [3] (day 29), 2689 g; in series [3] (day 36), 2708 g. Further, the body weights in series [3] (day 43) is reported as 2700 g; in series [3] (day 50), 2731 g; in series [3] (day 57), 2737 g; in series [3] (day 64), 2746 g; in series [3] (day 71), 2869 g; in series [3] (day 78) it was 2766 g. In addition, the BUN in series [4] (2 weeks) worked out at 25 mg/dL; in series [4] (4 weeks), 38 mg/dL; in series [4] (6 weeks), 30 mg/dL. Moreover, the Creatinine in series [4] (2 weeks) is 0.09 mg/dL; in series [4] (4 weeks), 0.27 mg/dL; in series [4] (6 weeks) it was 0.14 mg/dL.
On to “412225 (antisense GCAGCGGACGGCATTGGTGC; 5-10-5 MOE gapmer, further chemistry not given here) [compound 412225]”, for which the “% inhibition” value in series [1] came out at 86%.
“ISIS 416858: MOE gapmer, nucleobases 1275 to 1318 of SEQ ID NO: 1 (Table 8) (antisense ACGGCATTGGTGCACAGTTT; MOE gapmer, wing and gap sizes not given here)”: the fibrinogen levels is 246 mg/dL in series [2] (day 8); 219 mg/dL in series [2] (day 15); 222 mg/dL in series [2] (day 22); 220 mg/dL in series [2] (day 29); 225 mg/dL in series [2] (day 36); 229 mg/dL in series [2] (day 43). For the same substance, the fibrinogen levels amounted to 259 mg/dL in series [2] (day 50); 225 mg/dL in series [2] (day 57); 236 mg/dL in series [2] (day 64); 239 mg/dL in series [2] (day 71); 234 mg/dL in series [2] (day 78); 243 mg/dL in series [2] (day 85). Moreover, the fibrinogen levels stood at 246 mg/dL in series [2] (day −5) and 277 mg/dL in series [2] (day −14). In series [3], the “Organ weights, Kidney” value came to 13 g. Also, in series [3], the “Organ weights, Liver” value was determined as 60 g. The “Organ weights, Spleen” value in series [3] stood at 12 g. In addition, in series [3] (cynomolgus monkeys, compared to the PBS control), the “Spleen weight” value is “shows increase in spleen weight”. For the same substance, the body weights was 2912 g in series [3] (day 1); 2740 g in series [3] (day 8); 2760 g in series [3] (day 15); 2800 g in series [3] (day 22); 2763 g in series [3] (day 29); 2584 g in series [3] (day 36). The body weights in series [3] (day 43) worked out at 2607 g; in series [3] (day 50), 2646 g; in series [3] (day 57) it was 2617 g; in series [3] (day 64), 2618 g; in series [3] (day 71) it was 2865 g; in series [3] (day 78) it was 2713 g. In addition, the BUN in series [4] (2 weeks) stood at 21 mg/dL; in series [4] (4 weeks), 29 mg/dL; in series [4] (6 weeks), 19 mg/dL. Besides, the Creatinine is on record as 0.13 mg/dL in series [4] (2 weeks), 0.23 mg/dL in series [4] (4 weeks) and 0.10 mg/dL in series [4] (6 weeks).
On to “ISIS 417002: MOE gapmer, nucleobases 1275 to 1318 of SEQ ID NO: 1 (Table 8) (antisense GGTGCACAGTTTCTGGCAGG; MOE gapmer, wing and gap sizes not given here)”, for which the fibrinogen levels turned out to be 221 mg/dL in series [2] (day 8); 195 mg/dL in series [2] (day 15); 199 mg/dL in series [2] (day 22); 199 mg/dL in series [2] (day 29); 191 mg/dL in series [2] (day 36); 187 mg/dL in series [2] (day 43). Moreover, the fibrinogen levels in series [2] (day 50) is reported as 236 mg/dL; in series [2] (day 57) it was 201 mg/dL; in series [2] (day 64) it was 236 mg/dL; in series [2] (day 71) it was 228 mg/dL; in series [2] (day 78), 221 mg/dL; in series [2] (day 85), 224 mg/dL. For the same substance, the fibrinogen levels is 222 mg/dL in series [2] (day −5) and 291 mg/dL in series [2] (day −14). Further, the “Organ weights, Kidney” value in series [3] worked out at 15 g. For the same substance, the “Organ weights, Liver” value in series [3] was determined as 51 g. Further, in series [3], the “Organ weights, Spleen” value is recorded as 5 g. In addition, the body weights in series [3] (day 1) is given as 2640 g; in series [3] (day 8) it was 2523 g; in series [3] (day 15), 2571 g; in series [3] (day 22), 2617 g; in series [3] (day 29) it was 2622 g; in series [3] (day 36), 2631 g. Also, the body weights in series [3] (day 43) is reported as 2630 g; in series [3] (day 50), 2652 g; in series [3] (day 57), 2654 g; in series [3] (day 64), 2598 g; in series [3] (day 71), 2727 g; in series [3] (day 78), 2570 g. Further, the BUN in series [4] (2 weeks) was determined as 19 mg/dL; in series [4] (4 weeks), 23 mg/dL; in series [4] (6 weeks) it was 19 mg/dL. Moreover, the Creatinine in series [4] (2 weeks) amounted to 0.06 mg/dL; in series [4] (4 weeks), 0.16 mg/dL; in series [4] (6 weeks), 0.10 mg/dL.
As for “413482 (antisense GGACGGCATTGGTGCACAGT; 5-10-5 MOE gapmer, further chemistry not given here) [compound 413482]”, the “% inhibition” value in series [1] turned out to be 85%.
Regarding “412223 (antisense ACAGTTTCTGGCAGGCCTCG; 5-10-5 MOE gapmer, further chemistry not given here) [compound 412223]”, in series [1], the “% inhibition” value is listed as 84%.
Regarding “412224 (antisense GCATTGGTGCACAGTTTCTG; 5-10-5 MOE gapmer, further chemistry not given here) [compound 412224]”, in series [1], the “% inhibition” value is 87%.
